# How the values were obtained:
# [1] = tested on: MEFs lacking Pol β (Pol β −/−); test: Cytotoxicity in Pol β null mouse embryonic fibroblasts; format: cell-based; details: MMS alone
# DNA polymerase β (Pol β) = DNA polymerase β (Pol β) (Homo sapiens, UniProt P06746); details: cited from earlier work
SMILES,cytotoxicity relative to wild type MEFs [1],selectivity for Pol β over Pol λ (DNA polymerase β (Pol β))
"COS(C)(=O)=O [MMS, methylmethanesulfonate]",considerably more toxic,
C=CCc1ccc(O)c(-c2ccc(O)c(CC=C)c2)c1 [honokiol],,not selective for Pol β over Pol λ

# From paper PMC8284926 (Journal of the American Chemical Society, 2021)
